Laboratory results from US8247541B2, “Plant compositions enriched in dehydrosoyasaponin I (D-I) and methods of producing such compositions” (Her Majesty the Queen in right of Canada, as represented by …, priority 2007, dated 2012).
Entries after “also recorded” stand apart in the source; their conditions may differ. Marks after values point to notes of the source that are not given here.

How the values were obtained:
[1] = Light treatment of soyasaponin extracts/solutions followed by HPLC/ELSD (peak area ratio to internal standard alpha-hederin); format: physicochemical; conditions: 80% methanol; for D-I/D-I + S-I + S-VI / HPLC/ELSD component peak area to internal standard ratio, D-I / HPLC/ELSD component peak area to internal standard ratio, S-I / HPLC/ELSD component peak area to internal standard ratio, S-VI / HPLC/ELSD component peak area to internal standard ratio, total soyasaponins / HPLC/ELSD component peak area to internal standard ratio, unretained: 2 days fluorescent light
Protocol: HPLC and mass spectrometry. HP-20 MeOH samples (N=3) were prepared in 80% methanol at 8 mg/mL ( ? -hederin at 0.25 mg/mL) and syringe filtered (0.45 μm pore size, nylon membrane type, Chromatographic Specialties, Brockville, ON) into 0.25 mL glass autosampler vial inserts (Fisher no. 03-375-3A). The solutions were maintained at 15° C. before injection ([…] volume). The instrument consisted of an Alliance 2690 separations module (Waters Canada, Mississauga, ON) equipped with vacuum solvent degassing, a Waters 996 photodiode array detector (PDA) and a PL-EMD-960 evaporative light scattering detector (ELSD) (Polymer Laboratories, Amherst, Mass.) controlled by Waters Millennium software. Settings for the ELSD were attenuation=1, time constant=1 second, temperature=90°, PMT level=6 and airflow=4 liters/min. A reversed phase C-18 Symmetry™ column (3.0×150 mm, 5 μm particle size) purchased from Waters Canada and maintained at 30° C. was used. The mobile phase consisted of 0.05% trifluoroacetic acid (TFA) in water (solvent A) and 0.05% TFA in acetonitrile (solvent B), delivered at a flow rate of 0.4 mL/min. The gradient elution program consisted of 95% A and 5% B at time 0. After 10 min, the composition was 65% A and 35% B (linear, curve 6 gradient). At that time, the linear gradient progressed to 50% A and 50% B over 15 min and to 5% A-95% B over 5 min before reverting to 95% A and 5% B from 35 to 43 min. Mean values of the peak area ratios from single analysis of the three samples from each variety were reported. […]
To further investigate the possibility of S-VI undergoing visible-light-mediated phototransformation to D-I, a source of the unstable S-VI was required as well as other chromatographic fractions that might contain a photosensitizer. Starting with defatted Amit chickpea flour and with brief (minimal) exposure to visible laboratory light, we therefore isolated by the traditional hot methanol and Diaion HP-20 procedures (of Table 1) a dried HP-20 MeOH extract containing S-VI. The earlier-eluting aqueous methanol fractions (also isolated in powder form) were additionally obtained as a potential source of the photosensitizer, in addition to the chloroform extract from the defatting step. Three extraction and isolation experiments were completed (prep A, B and E). Aqueous methanol fractions (30% MeOH and <30% MeOH) containing non-saponin components (see example 7) were additionally available from an experiment on the same flour but these fractions had been isolated after exposure of the crude methanol extract to light (see Table 7).
Three concentrations of a 30% MeOH isolate were used for comparison (two concentrations were previously employed in Table 10). […] D-I to internal standard ratios were 3.3-4, equivalent to the ratios obtained in tests 3 and 4 with the aqueous methanol additions (see also trial 3 of Table 10).

[2] = Solubility of photosensitizer in extraction solvents; format: physicochemical
[3] = system: stored product insect pests; conditions: D-I isolated from pea; cited from earlier work
[4] = molecular target: calcium-dependent potassium channels (Homo sapiens, UniProt Q12791+Q16558); conditions: cited from earlier work
Chain of calcium-dependent potassium channels (Q12791 whole entry): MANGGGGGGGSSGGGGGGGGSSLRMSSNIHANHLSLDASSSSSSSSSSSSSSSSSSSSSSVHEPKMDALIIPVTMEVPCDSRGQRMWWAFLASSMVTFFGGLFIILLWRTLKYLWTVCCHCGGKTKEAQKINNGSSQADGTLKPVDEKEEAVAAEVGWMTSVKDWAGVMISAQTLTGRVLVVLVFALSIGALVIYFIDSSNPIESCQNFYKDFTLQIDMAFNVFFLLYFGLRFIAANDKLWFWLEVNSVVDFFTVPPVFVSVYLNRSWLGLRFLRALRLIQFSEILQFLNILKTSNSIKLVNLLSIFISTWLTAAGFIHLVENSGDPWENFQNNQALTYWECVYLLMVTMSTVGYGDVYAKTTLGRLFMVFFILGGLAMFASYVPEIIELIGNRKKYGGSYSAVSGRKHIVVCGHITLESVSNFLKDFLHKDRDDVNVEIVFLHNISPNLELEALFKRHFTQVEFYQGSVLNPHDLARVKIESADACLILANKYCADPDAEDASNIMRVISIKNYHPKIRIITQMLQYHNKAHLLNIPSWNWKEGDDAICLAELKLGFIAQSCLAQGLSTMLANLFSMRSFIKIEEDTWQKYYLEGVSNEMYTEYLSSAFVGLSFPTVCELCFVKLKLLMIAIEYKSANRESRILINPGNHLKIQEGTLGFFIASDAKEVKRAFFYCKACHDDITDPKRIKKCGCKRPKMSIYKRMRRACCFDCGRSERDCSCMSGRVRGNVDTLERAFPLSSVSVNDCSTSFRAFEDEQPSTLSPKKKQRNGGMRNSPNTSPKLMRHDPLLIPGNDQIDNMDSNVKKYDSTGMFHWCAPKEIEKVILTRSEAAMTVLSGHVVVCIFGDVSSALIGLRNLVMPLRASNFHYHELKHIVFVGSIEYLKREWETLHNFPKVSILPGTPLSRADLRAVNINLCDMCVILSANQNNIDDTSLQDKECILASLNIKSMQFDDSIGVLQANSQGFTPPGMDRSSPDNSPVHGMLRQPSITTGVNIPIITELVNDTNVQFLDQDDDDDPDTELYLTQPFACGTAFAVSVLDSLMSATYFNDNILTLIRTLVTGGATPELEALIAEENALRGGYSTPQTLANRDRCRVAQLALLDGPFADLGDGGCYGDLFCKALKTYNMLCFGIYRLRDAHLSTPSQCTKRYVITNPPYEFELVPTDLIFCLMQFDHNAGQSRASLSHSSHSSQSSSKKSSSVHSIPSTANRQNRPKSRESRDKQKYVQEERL
Chain of calcium-dependent potassium channels (Q16558 whole entry): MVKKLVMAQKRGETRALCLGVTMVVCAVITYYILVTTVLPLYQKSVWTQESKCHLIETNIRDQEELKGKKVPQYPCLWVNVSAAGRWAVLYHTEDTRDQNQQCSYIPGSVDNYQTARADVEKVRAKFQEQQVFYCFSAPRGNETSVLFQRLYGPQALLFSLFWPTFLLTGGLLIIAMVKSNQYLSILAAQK

[5] = potential photosensitizer 10 μM added to 100% MeOH fraction (3 mg) of Amit chickpea
[6] = potential photosensitizer 50 μM added to 100% MeOH fraction (3 mg) of Amit chickpea
[7] = potential photosensitizer 100 μM added to 100% MeOH fraction (3 mg) of Amit chickpea
[8] = potential photosensitizer 50 μM added to 100% MeOH (2.98 mg) + 30% MeOH (4.47-4.58 mg) fractions

Row | Compound | D-I/D-I + S-I + S-VI [1, 5] | HPLC/ELSD component peak area to internal standard ratio, D-I [1, 5] | HPLC/ELSD component peak area to internal standard ratio, S-I [1, 5] | HPLC/ELSD component peak area to internal standard ratio, S-VI [1, 5] | HPLC/ELSD component peak area to internal standard ratio, total soyasaponins [1, 5] | HPLC/ELSD component peak area to internal standard ratio, unretained [1, 5] | D-I/D-I + S-I + S-VI [1, 6] | HPLC/ELSD component peak area to internal standard ratio, D-I [1, 6] | HPLC/ELSD component peak area to internal standard ratio, S-I [1, 6] | HPLC/ELSD component peak area to internal standard ratio, S-VI [1, 6] | HPLC/ELSD component peak area to internal standard ratio, total soyasaponins [1, 6] | HPLC/ELSD component peak area to internal standard ratio, unretained [1, 6] | D-I/D-I + S-I + S-VI [1, 7] | HPLC/ELSD component peak area to internal standard ratio, D-I [1, 7] | HPLC/ELSD component peak area to internal standard ratio, S-I [1, 7] | HPLC/ELSD component peak area to internal standard ratio, S-VI [1, 7] | HPLC/ELSD component peak area to internal standard ratio, total soyasaponins [1, 7] | HPLC/ELSD component peak area to internal standard ratio, unretained [1, 7] | other results
1 | Cc1cc2nc3c(=O)[nH]c(=O)nc-3n(C[C@H](O)[C@H](O)[C@H](O)COP(=O)(O)OP(=O)(O)OC[C@H]3O[C@@H](n4cnc5c(N)ncnc54)[C@H](O)[C@@H]3O)c2cc1C [FAD] | 0.3 | 3.3 | 6.8 | <0.003 | 10.1 | 5.1 | 0.4 | 3.0 | 5.5 | <0.003 | 8.6 | 5.6 | 0.4 | 2.8 | 4.0 | <0.003 | 6.7 | 6.9 | –
2 | Cc1cc2nc3c(=O)[nH]c(=O)nc-3n(C[C@H](O)[C@H](O)[C@H](O)COP(=O)(O)O)c2cc1C [FMN] | 0.3 | 3.3 | 6.5 | <0.003 | 9.9 | 4.8 | 0.4 | 2.9 | 4.5 | <0.003 | 7.4 | 5.1 | 0.5 | 1.8 | 0.3^f | <0.003 | 2.1 | 6.5 | –
3 | CC1=C(O)C(=O)C[C@H](O[C@@H]2CC(C)(C)C[C@H]3C4=CC[C@@H]5[C@@]6(C)CC[C@H](O[C@@H]7O[C@H](C(=O)O)[C@@H](O)[C@H](O)[C@H]7O[C@@H]7O[C@H](CO)[C@H](O)[C@H](O)[C@H]7O[C@@H]7O[C@@H](C)[C@H](O)[C@@H](O)[C@H]7O)[C@](C)(CO)[C@@H]6CC[C@@]5(C)[C@]4(C)CC[C@@]23C)O1 [S-VI, soyasaponin VI] | – | – | – | – | – | – | – | – | – | – | – | – | – | – | – | – | – | – | stability to fluorescent light ([1]; laboratory fluorescent light levels, room temperature, a few days): labile
4 | COc1c2ccoc2cc2oc(=O)ccc12 [bergapten] | 0.1 | 1.6 | 8.2 | 1.2 | 11.0 | 4.8 | 0.1 | 1.2 | 6.0 | 1.2 | 8.4 | 3.8 | 0.2 | 1.7 | 8.0 | 1.4 | 11.1 | 4.4 | D-I/D-I + S-I + S-VI [1, 8]: 0.3; HPLC/ELSD component peak area to internal standard ratio, D-I [1, 8]: 3.6; HPLC/ELSD component peak area to internal standard ratio, S-I [1, 8]: 7.4; HPLC/ELSD component peak area to internal standard ratio, S-VI [1, 8]: <0.003; HPLC/ELSD component peak area to internal standard ratio, total soyasaponins [1, 8]: 11.0; HPLC/ELSD component peak area to internal standard ratio, unretained [1, 8]: 70.7
5 | Cc1cc2nc3c(=O)[nH]c(=O)nc-3n(C[C@H](O)[C@H](O)[C@H](O)CO)c2cc1C [riboflavin] | – | – | – | – | – | – | – | – | – | – | – | – | – | – | – | – | – | – | solubility in 80% methanol ([2]; 80% methanol): soluble; solubility in chloroform ([2]; chloroform): sparingly soluble
6 | dehydrosoyasaponin I [D-I] | – | – | – | – | – | – | – | – | – | – | – | – | – | – | – | – | – | – | insecticidal and antifeedant properties [3]: insecticidal and antifeedant properties; activity on calcium-dependent (calcium-activated) potassium channels ([4]; D-I isolated from leaves of Desmodium adscendens): high-affinity activator; also recorded: potent calcium-activated potassium channel opener; potency as a potassium channel opener relative to S-I ([4]; compared with S-I): 60 fold
